Laboratory results: patent US20100311782A1, “SUBSTITUTED PIPERIDINYLPROPANOIC ACID COMPOUNDS AND METHODS OF THEIR USE” (priority 2009, published 2010)
“And” between values parts separate entries of the source, which are not always exact repeats. Equal entries are not always repeated. Structures can show the parent of a compound that is named as a salt. Where two headings read alike, the source gives them in different places.

Tests used:
Primate PK = assay type: in vivo, monkey; conditions: for AUC0-t / Cmax: 1 mg/kg; for bioavailability: single PO dose of 1 mg/kg, read-out: oral bioavailability (F)
Protocol: The dose formulations were prepared on the day of dosing by dissolving 33.16 mg of test material in 60 mL of sterile water to achieve a concentration of 0.5526 mg/mL total compound (0.5 mg/mL test compound). The dosing solution was vortexed to ensure homogeneity and dissolution.
The dose formulation was administered via oral gavage per facility SOPs. Each monkey received a single PO dose of 1 mg/kg as a 0.5% MC suspension.
(§1) All blood samples were collected from a peripheral vessel. Approximately 0.3 mL blood was collected at each time point. All blood samples were placed on wet ice until processed for plasma.
Blood samples were processed for plasma by centrifugation at approximately 5° C. Plasma samples were be stored in polypropylene tubes, quick frozen over dry ice and kept at −70±10° C. until LC/MSMS analysis.
(§2) Plasma concentrations were determined by high performance liquid chromatography with tandem mass spectrometric detection (LC/MS/MS) after protein precipitation.
(§3) Plasma concentration versus time data was analyzed by non-compartmental approaches using the WinNonlin software program (version 5.0.1, Pharsight, Mountain View, Calif.).

[1] = tested on: morphine-slowed gastrointestinal transit (GIT); assay: Mouse Gastrointestinal Transit (GIT) Assay, antagonism of the anti-transit effect of morphine; assay type: in vivo, mice; conditions: for recovery of the pre-opioid treatment efficacy of GIT: one hour after a 3 mg/kg dose, morphine 3 mg/kg s.c.
Protocol: Male Swiss-Webster mice (25-30 g) obtained from Ace Animals (Boyertown, Pa.) were used for all experiments. Mice were housed 4/cage in polycarbonate cages with food and water available ad libitum. Mice were on a 12 hours light:dark schedule with lights on at 6:30 a.m. All experiments were performed during the light cycle. Mice were fasted the night before the experiment, with water available ad libitum.
Compounds were administered in a volume of 0.1 ml/10 g of body weight. Morphine (3 mg/kg) or vehicle (0.9% saline) was administered s.c. 35 min to induce slowed GIT, prior to determination of GIT. Ten minutes after the morphine treatment, mice were administered 0.2 ml of a charcoal meal orally. The charcoal meal consisted of a slurry of charcoal, flour, and water in the following ratio (1:2:8, w:w:v). Twenty-five minutes after receiving the charcoal meal, the mice were euthanized with CO2 and GIT was determined.
GIT is expressed as % GIT by the following formula: […]
For each test agent, a value for % Antagonism (% A) was determined for the 2 and 6 hr antagonist pretreatment. Using the mean % GIT for each treatment group, % A was calculated using the following formula: […]

[2] = molecular target: T1, cloned human μ opioid receptor (Homo sapiens, UniProt P35372); assay: Receptor binding, [3H]diprenorphine displacement, mu opioid receptor; conditions: for Ki: [3H]diprenorphine, cloned human mu opioid receptor; for DOR/MOR Ratio: ratio of DOR Ki to MOR Ki
T1 construct: expressed in transfected cells
T1 sequence (P35372 whole entry): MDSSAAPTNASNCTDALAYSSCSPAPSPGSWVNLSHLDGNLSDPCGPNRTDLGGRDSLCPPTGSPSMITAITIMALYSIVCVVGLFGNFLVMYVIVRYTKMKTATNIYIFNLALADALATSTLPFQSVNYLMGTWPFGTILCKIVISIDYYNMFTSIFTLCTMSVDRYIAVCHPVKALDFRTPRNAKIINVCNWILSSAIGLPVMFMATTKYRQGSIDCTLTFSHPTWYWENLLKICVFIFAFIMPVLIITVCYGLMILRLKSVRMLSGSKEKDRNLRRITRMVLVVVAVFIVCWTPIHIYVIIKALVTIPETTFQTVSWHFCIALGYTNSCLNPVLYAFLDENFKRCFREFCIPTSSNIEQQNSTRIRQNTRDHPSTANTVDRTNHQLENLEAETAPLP

Dog PK = assay type: in vivo; conditions: for AUC0-t: 6 mg/kg, individual dogs; for bioavailability: single PO dose of 6 mg/kg, read-out: oral bioavailability (F); for AUC: mean of three dogs
Protocol: The PO dose formulations were prepared on the day of dosing by dissolving 33.16 mg of test material in 60 mL of sterile water to achieve a concentration of 0.5526 mg/mL total compound (0.5 mg/mL test compound). The dosing solution was vortexed to ensure homogeneity and dissolution.
The dose formulation was administered via oral gavage per facility SOPs. Each dog received a single PO dose of 6 mg/kg.
as §1
Blood samples were processed for plasma by centrifugation at approximately 5° C. Plasma samples were stored in polypropylene tubes, quick frozen over dry ice and kept at −70±10° C. until LC/MSMS analysis.
as §2, §3

[3] = molecular target: T2, cloned human δ opioid receptor (Homo sapiens, UniProt P41143); assay: Receptor binding, [3H]diprenorphine displacement, delta opioid receptor
T2 construct: expressed in transfected cells
T2 sequence (P41143 whole entry): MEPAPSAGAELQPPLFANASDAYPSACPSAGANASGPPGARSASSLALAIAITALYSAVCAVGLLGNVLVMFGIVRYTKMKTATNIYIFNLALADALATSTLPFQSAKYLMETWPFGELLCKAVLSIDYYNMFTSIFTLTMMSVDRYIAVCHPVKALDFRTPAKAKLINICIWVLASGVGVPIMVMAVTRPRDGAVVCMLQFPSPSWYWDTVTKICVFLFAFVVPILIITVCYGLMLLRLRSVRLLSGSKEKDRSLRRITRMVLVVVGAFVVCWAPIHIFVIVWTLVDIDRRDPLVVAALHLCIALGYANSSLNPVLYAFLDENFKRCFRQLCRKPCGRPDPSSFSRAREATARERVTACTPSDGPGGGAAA

Rat PK = assay type: in vivo; conditions: rats; for bioavailability: male, Sprague-Dawley, rat, plasma, read-out: oral bioavailability (F)
Protocol: Jugular vein cannulated (JVC) male Sprague-Dawley (SD) rats (Charles River, Raleigh, N.C.) were housed individually in polycarbonate cages on alpha-dri bedding in an environmentally controlled room with a 12 hour light-dark cycle. Rats were allowed to acclimate for 3-5 days prior to the study. Animals were fasted overnight prior to drug administration and were fed after the 4 h blood collection.
The suspension used for PO administration was prepared at a nominal concentration of 2 mg/mL of test agent in 0.5% methylcellulose with 0.1% Tween®80.
Two groups of three JVC rats each received a single PO dose of 10 mg/kg. The PO dose was administered by oral gavage in a dosing volume of 5 mL/kg. Blood samples (0.6 mL) were collected via jugular vein cannula at predose, 15 and 30 minutes and 1, 2, 4, 6, 8 and 24 h postdose in EDTA-containing tubes. Plasma was obtained by centrifugation at 3000 rpm for 15 minutes. The samples were stored at −20° C. until analysis.
Plasma aliquots were deproteinized with internal standard solution in acetonitrile. The samples were vortexed, centrifuged and an aliquot of the supernatant was mixed with water. The diluted aliquot was then analyzed.
as §2
Model-independent analyses were performed to evaluate the pharmacokinetics. The area under the concentration-time curve (AUC) and the area under the first moment curve (AUMC) were calculated from zero to 6 or 8 hours post-dose using the linear trapezoidal method with extrapolation to infinity. The terminal elimination rate constant (kel) and half-life (t1/2) were calculated by linear least-squares regression of log-transformed concentration-time data. Systemic plasma clearance (CLs) was computed from Dose/AUC. Volume of distribution at steady state (Vdss) was calculated from Dose·AUMC/AUC^2. WinNonlin® Professional software (Pharsight Corporation) was used to generate all pharmacokinetic data.

[4] = molecular target: T3, cloned human κ opioid receptor (Homo sapiens, UniProt P41145); assay: Receptor binding, [3H]diprenorphine displacement, kappa opioid receptor
T3 construct: expressed in transfected cells
T3 sequence (P41145 whole entry): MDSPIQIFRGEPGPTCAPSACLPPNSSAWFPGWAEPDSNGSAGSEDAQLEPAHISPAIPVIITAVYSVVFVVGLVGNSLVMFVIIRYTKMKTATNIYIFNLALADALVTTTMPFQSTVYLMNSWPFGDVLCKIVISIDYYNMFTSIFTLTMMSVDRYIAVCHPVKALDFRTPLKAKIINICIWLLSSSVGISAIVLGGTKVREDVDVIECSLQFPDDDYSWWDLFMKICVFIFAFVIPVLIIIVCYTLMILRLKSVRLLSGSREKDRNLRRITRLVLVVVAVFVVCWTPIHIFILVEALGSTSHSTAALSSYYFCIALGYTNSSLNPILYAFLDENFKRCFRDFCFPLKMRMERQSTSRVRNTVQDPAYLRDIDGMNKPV

[5] = molecular target: T1, cloned human μ opioid receptor; assay: Inhibition of agonist (loperamide)-stimulated [35S]GTPγS binding; assay type: biochemical; conditions: in vitro studies
Protocol: The potencies of the antagonists were assessed by their abilities to inhibit agonist-stimulated [^35S]GTPγS binding to membranes containing the cloned human μ, κ, or δ opioid receptors. The agonist used for the μ opioid receptor was loperamide.
To determine the IC50 value, which was the concentration to give half-maximal inhibition of agonist-stimulated [^35S]GTPγS binding, the amount of [^35S]GTPγS bound in the presence of a fixed concentration of agonist and various concentrations of antagonist was measured. The fixed concentration of agonist was the EC80 for the agonist, which was the concentration to give 80% of the relative maximum stimulation of [^35S]GTPγS binding. The IC50 value was determined from a best nonlinear regression fit of the data to the following equation,
where Y is the amount of [^35S]GTPγS bound at each concentration of antagonist, Bottom is the calculated amount of [^35S]GTPγS bound in the presence of an infinite concentration of antagonist, Top is the calculated amount of [^35S]GTPγS bound in the absence of added antagonist, X is the logarithm of the concentration of antagonist, and LogIC50 is the logarithm of the concentration of antagonist where the amount of [^35S]GTPγS bound is halfway between Bottom and Top. The nonlinear regression fit was performed using GraphPad Prism® version 3.00 for Windows (GraphPad Software, San Diego, Calif.).

[6] = individual monkeys, PO 1 mg/kg, lithium salt
[7] = [3H]diprenorphine, cloned human kappa opioid receptor, read-out: KOR Ki

For `C[C@H]1CN(C[C@H](Cc2ccccc2)C(=O)[O-])CC[C@@]1(C)c1cccc(C(N)=O)c1.[Li+]` [Example 1, (S)-2-benzyl-3-((3R,4R)-4-(3-carbamoylphenyl)-3,4-dimethylpiperidin-1-yl)propanoic acid, lithium salt], the AUC0-t (Primate PK; [6]) was 87 ng·h/mL and 132 ng·h/mL, the Cmax (Primate PK; [6]) was 29.5 ng/mL and 20.8 ng/mL and 44.6 ng/mL and the AUC0-t (Primate PK; monkey, in vivo, po, individual monkeys, PO 1 mg/kg, read-out: AUC0-t) was 103 ng·h/mL. The Cmax (Primate PK; monkey, in vivo, po, mean of three monkeys, PO 1 mg/kg, read-out: Mean Cmax ± SD) was 32 ± 12 ng/mL, the Cmax (Primate PK; monkey, in vivo, po, monkeys, PO 1 mg/kg, mean ± SD, text of b284, read-out: Cmax) was 32 ± 12 ng/mL and the bioavailability (Primate PK; monkey, in vivo, monkeys) was 10%. For the same molecule, the “fold higher maximum plasma concentration (Cmax) as compared to Example C-3” value (Primate PK; monkeys, PO 1 mg/kg) was 18.3 fold, the “AUC values (h * percent antagonism (0-6 h))” value ([1]; mice, 3 mg/kg orally, 0-6 h) was 408.8 h * percent antagonism and the “recovery of the pre-opioid treatment efficacy of GIT” value ([1]; mice) was roughly 90%. For the same molecule, the “AUC value (GIT antagonism) times greater than that of Example C-2” value ([1]; mouse, in vivo) was 2.1 times, the Ki ([2]; MOR Ki) was 11.2 nM and the “DOR/MOR Ratio” value [2] was 30. It also gave an AUC0-t (Dog PK; dog, in vivo, po, PO 6 mg/kg, read-out: AUC0-t) of 183 ng·h/mL, a bioavailability (Dog PK; dog, in vivo, dogs) of 30% and an AUC (Dog PK; dog, in vivo, PO 6 mg/kg) of 259 ± 81 ng·h/mL. The “improvement in the mean AUC value as compared to Example C-3” value (Dog PK; dogs, PO 6 mg/kg) was “approximately 4 fold”, the “increase in mean concentration in plasma as compared to C-3” value (Dog PK; dogs, PO 6 mg/kg) was “approximately 3 fold” and the AUC0-t (Dog PK; PO 6 mg/kg, lithium salt) was 250 ng·h/mL and 344 ng·h/mL. The Ki ([3]; DOR Ki) was 340 nM.

With `C[C@H]1CN(C[C@H](Cc2ccccc2)C(=O)[O-])CC[C@@]1(C)c1cccc(C(N)=O)c1.[Na+]` [Example 2, (S)-2-benzyl-3-((3R,4R)-4-(3-carbamoylphenyl)-3,4-dimethylpiperidin-1-yl)propanoic acid, sodium salt] the Ki ([2]; MOR Ki) was 17.3 nM, the “DOR/MOR Ratio” value [2] was 18 and the bioavailability (Rat PK; single PO dose of 10 mg/kg) was 11%. The Ki ([3]; DOR Ki) was 308 nM.

For `C[C@H]1CN(C[C@H](Cc2ccccc2)C(=O)O)CC[C@@]1(C)c1cccc(C(N)=O)c1.O=C(O)C(F)(F)F` [Example 3, (S)-2-benzyl-3-((3R,4R)-4-(3-carbamoylphenyl)-3,4-dimethylpiperidin-1-yl)propanoic acid, trifluoroacetate salt], the Ki ([2]; MOR Ki) was 12.4 nM, the “DOR/MOR Ratio” value [2] was 32 and the bioavailability (Rat PK; single PO dose of 10 mg/kg) was 8%. For the same molecule, the “improvement in oral bioavailability as compared to Example C-2” value (Rat PK; PO 10 mg/kg) was “approximately 8 fold” and the Ki ([3]; DOR Ki) was 397 nM.

`C[C@H]1CN(C[C@H](Cc2ccccc2)C(=O)O)CC[C@@]1(C)c1cccc(C(N)=O)c1` [Example 5, (S)-2-benzyl-3-((3R,4R)-4-(3-carbamoylphenyl)-3,4-dimethylpiperidin-1-yl)propanoic acid, oxalic acid salt] showed a Ki ([2]; MOR Ki) of 16.9 nM, a Ki [4] greater than 10000 nM and a Ki ([3]; DOR Ki) of 310 nM.

In the case of `C[C@H]1CN(C[C@H](Cc2ccccc2)C(=O)O)CC[C@@]1(C)c1cccc(C(=O)O)c1` [Example C-1, 3-[1-(2S-Carboxy-3-phenyl-propyl)-3R,4R-dimethyl-piperidin-4-yl]-benzoic acid, reference compound], the “inhibition of agonist-stimulated [35S]GTPγS binding relative to the other test compounds” value [5] is reported as “significantly reduced inhibition”, the Ki ([2]; read-out: MOR Ki) is reported as 2290 nM and the Ki [4, 7] is reported as greater than 10000 nM. It also gave a Ki ([3]; read-out: DOR Ki) greater than 10000 nM.

With `C[C@H]1CN(C[C@@H](Cc2ccccc2)C(=O)NCC(=O)O)CC[C@@]1(C)c1cccc(C(N)=O)c1.O=C(O)C(F)(F)F` [Example C-2, [[2(R)-[[4(R)-(3-Amidophenyl)-3(R),4-dimethyl-1-piperidinyl]methyl]-1-oxo-3-phenylpropyl]amino]acetic acid, trifluoromethylacetate salt, reference compound] the “recovery of the pre-opioid treatment efficacy of GIT” value ([1]; mice) was 50%, the “AUC values (h * percent antagonism (0-6 h))” value ([1]; mouse, in vivo, po, 3 mg/kg) was 191.5 h * percent antagonism and the “times more potent than Example 1 as an MOR antagonist in the opioid receptor binding assay” value ([2]; C-2 versus Example 1, Table I) was 4.3 times. For the same molecule, the Ki ([2]; read-out: MOR Ki) was 2.6 nM, the “DOR/MOR Ratio” value [2] was 33 and the Ki [4, 7] was 660 nM. For the same molecule, the “oral bioavailability (F)” value (Rat PK; single PO dose of 10 mg/kg) was roughly 1% and the Ki ([3]; read-out: DOR Ki) was 85 nM.

In the case of `CC1CN(CC(Cc2ccccc2)C(=O)NCC(=O)O)CCC1(C)c1cccc(C(N)=O)c1` [Example C-3, [[2(R)-[[4(R)-(3-Amidophenyl)-3(R),4-dimethyl-1-piperidinyl]methyl]-1-oxo-3-phenylpropyl]amino]acetic acid, sodium salt, reference compound], the Cmax (Primate PK; individual monkeys, PO 1 mg/kg, sodium salt) is reported as 1.81 ng/mL and 1.74 ng/mL, the Cmax (Primate PK; monkey, plasma, po, individual monkeys, PO 1 mg/kg, read-out: Cmax) is reported as 1.7 ng/mL and the Cmax (Primate PK; monkey, plasma, po, mean of three monkeys, PO 1 mg/kg, read-out: Mean Cmax ± SD) is reported as 1.75 ± 0.06 ng/mL. For the same molecule, the bioavailability (Primate PK; monkey, plasma, monkeys) was less than 2%, the Ki ([2]; MOR Ki) was 2.9 nM and the “DOR/MOR Ratio” value [2] was 34. The AUC0-t (Dog PK; dog, plasma, po, PO 6 mg/kg, read-out: AUC0-t) was 81 ng·h/mL, the bioavailability (Dog PK; dog, plasma, dogs) was 11% and the AUC (Dog PK; dog, plasma, PO 6 mg/kg) was 63 ± 16 ng·h/mL. For the same molecule, the AUC0-t (Dog PK; PO 6 mg/kg, sodium salt) was 54 ng·h/mL and 53 ng·h/mL, the Ki [4, 7] was 930 nM and the Ki ([3]; DOR Ki) was 98 nM.
